Measured values: BindingDB's records for doi:10.1021/jm960728j (Uppsala University, 1997)

Biological target: T1, Dimer of Gag-Pol polyprotein [489-587] (Human immunodeficiency virus 1, UniProt P12497)
T1 construct: 489-587
Assay: Protease Inhibition Assay
Details: pH 5.5; 37 °C
Source text: The IC50 value is the inhibitor concentration that results in 50% of HIV-1 protease activity measured by a spectrophotometric assay using a chromophoric peptide.

| SMILES | Ki [nM] |
| --- | --- |
| O=C1N(Cc2ccc(CO)cc2)[C@H](Cc2ccccc2)[C@H](O)[C@@H](O)[C@@H](Cc2ccccc2)N1Cc1ccc(CO)cc1 [(4R,5S,6S,7R)-4,7-dibenzyl-5,6-dihydroxy-1,3-bis({[4-(hydroxymethyl)phenyl]methyl})-1,3-diazepan-2-one] | < 1 |
| O=C1N(Cc2ccc(CO)cc2)[C@H](COc2ccccc2)[C@H](O)[C@@H](O)[C@@H](COc2ccccc2)N1Cc1ccc(CO)cc1 [(4R,5S,6S,7R)-5,6-dihydroxy-1,3-bis({[4-(hydroxymethyl)phenyl]methyl})-4,7-bis(phenoxymethyl)-1,3-diazepan-2-one] | < 1 |
